From patent US7399869B2, “Fibroblast activation protein inhibitor compounds and methods” (Genentech, Inc., priority 2005, dated 2008)
Residues, ends and D or L forms follow the SMILES beside them. *: point of attachment. CH2Cl = ClC*

Tests used:
[1] = target: T1, FAP (Homo sapiens, UniProt Q12884); experiment: Relative cleavage rates of coumarin (AMCC) dipeptide substrates by FAP; format: biochemical; design: FAP (amino acids 38-760); FLAG (N); made in house; host or cells: 293 cells (secreted, purified from serum-free conditioned media); conditions: P2-Pro-AMCC substrates; hydrolysis rates normalized to Gly-Pro-AMCC
T1 sequence (Q12884 38-760): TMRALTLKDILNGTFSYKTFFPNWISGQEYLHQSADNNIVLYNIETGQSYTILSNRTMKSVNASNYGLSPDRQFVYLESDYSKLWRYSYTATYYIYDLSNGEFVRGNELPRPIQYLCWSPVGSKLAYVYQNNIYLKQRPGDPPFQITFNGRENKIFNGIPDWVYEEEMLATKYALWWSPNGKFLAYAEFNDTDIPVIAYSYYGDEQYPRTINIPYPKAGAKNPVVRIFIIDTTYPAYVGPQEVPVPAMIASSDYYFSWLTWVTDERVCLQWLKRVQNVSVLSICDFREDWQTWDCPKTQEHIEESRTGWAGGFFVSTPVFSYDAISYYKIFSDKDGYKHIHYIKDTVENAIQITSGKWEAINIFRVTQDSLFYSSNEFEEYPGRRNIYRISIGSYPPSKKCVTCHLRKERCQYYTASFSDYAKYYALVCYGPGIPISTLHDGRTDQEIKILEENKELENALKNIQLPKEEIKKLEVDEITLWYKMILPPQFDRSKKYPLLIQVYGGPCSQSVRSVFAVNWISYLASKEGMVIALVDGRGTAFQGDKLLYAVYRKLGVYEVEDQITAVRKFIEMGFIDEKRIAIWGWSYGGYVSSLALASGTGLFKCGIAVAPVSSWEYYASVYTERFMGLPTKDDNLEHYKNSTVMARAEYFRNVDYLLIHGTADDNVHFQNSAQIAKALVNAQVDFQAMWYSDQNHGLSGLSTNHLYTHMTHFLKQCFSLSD
Procedure: (§1) The relative cleavage rates of a variety of N-blocked, C-terminal coumarin (AMCC) Gly-Pro dipeptide substrates 6 were measured. The rates were normalized to N-unblocked Gly-Pro-AMCC for FAP and DPP-4.
(§2) To examine whether FAP could cleave other N-substituted-Gly-Pro-based substrates, N-methyl-, formyl-, succinyl-, benzyloxycarbonyl-(Z-) and biotinyl-Gly-Pro-AMCC substrates 6 were synthesized and reacted with FAP (37 nM) and DPP-4 (6.8 nM).
(§3) Amino-terminus P2 was varied with the L-amino acids: alanine, aspartic acid, glutamic acid, phenylalanine, glycine, histidine, isoleucine, lysine, leucine, methionine, asparagine, proline, glutamine, arginine, serine, threonine, valine, tryptophan, and tyrosine (from left). AMCC=2-(7-amino-4-methyl-2-oxo-2H-chromen-3-yl)acetamide. For both enzymes, the amino acid adjacent in the model dipeptide substrate had little effect where the amino-terminus was unblocked. Hydrolysis rates of other P2-Pro-AMCC substrates by FAP and DPP-4 relative to Gly-Pro-AMCC include the following in Table 6:
(§4) Protease Assays—Protease activity was monitored continuously using a SpectraMax M2 microplate reader (Molecular Devices Corp., Sunnyvale Calif.) in the kinetic mode. Assays were conducted at 23° C. in 50 mM Tris (pH 7.4), 100 mM NaCl, 1 mM EDTA. The excitation/emission wavelengths for the different fluorogenic substrates were 360/460 nm (AMC), 400/505 nm (AFC), 340/425 nm (MNA), 340/510 nm (EDANS), and 337/425 nm (Abs). Standard curves of the appropriate fluorescent product versus concentration were used to convert relative fluorescence units to nmol of product produced. Substrates in the X-Pro-AMC library were used in rate assays at 5 μM final concentration. […] The kinetic parameters were calculated from Michaelis-Menten plots (V0 versus [S]) with nonlinear regression analysis using GraphPad software. kcat values were calculated under the assumption that each protease was 100% active.

[2] = target: T1, FAP; experiment: Inhibition of FAP activity against Ala-Pro-AFC by P2-Pro-AMCC compounds; format: biochemical; design: FAP (amino acids 38-760); FLAG (N); made in house; host or cells: 293 cells (secreted, purified from serum-free conditioned media)
Procedure: (§5) Inhibition of FAP and DPP-4 activity against Ala-Pro-AFC by P2-Pro-AMCC compounds was measured at various concentration of the P2-Pro-AMCC compounds in Table 7.

[3] = target: T2, DPP-4 (Homo sapiens, UniProt P27487); experiment: Relative cleavage rates of coumarin (AMCC) dipeptide substrates by DPP-4; format: biochemical; design: DPP-4 (amino acids 39-766); FLAG (N); made in house; host or cells: 293 cells (secreted, purified from serum-free conditioned media); conditions: P2-Pro-AMCC substrates; hydrolysis rates normalized to Gly-Pro-AMCC
T2 sequence (P27487 39-766): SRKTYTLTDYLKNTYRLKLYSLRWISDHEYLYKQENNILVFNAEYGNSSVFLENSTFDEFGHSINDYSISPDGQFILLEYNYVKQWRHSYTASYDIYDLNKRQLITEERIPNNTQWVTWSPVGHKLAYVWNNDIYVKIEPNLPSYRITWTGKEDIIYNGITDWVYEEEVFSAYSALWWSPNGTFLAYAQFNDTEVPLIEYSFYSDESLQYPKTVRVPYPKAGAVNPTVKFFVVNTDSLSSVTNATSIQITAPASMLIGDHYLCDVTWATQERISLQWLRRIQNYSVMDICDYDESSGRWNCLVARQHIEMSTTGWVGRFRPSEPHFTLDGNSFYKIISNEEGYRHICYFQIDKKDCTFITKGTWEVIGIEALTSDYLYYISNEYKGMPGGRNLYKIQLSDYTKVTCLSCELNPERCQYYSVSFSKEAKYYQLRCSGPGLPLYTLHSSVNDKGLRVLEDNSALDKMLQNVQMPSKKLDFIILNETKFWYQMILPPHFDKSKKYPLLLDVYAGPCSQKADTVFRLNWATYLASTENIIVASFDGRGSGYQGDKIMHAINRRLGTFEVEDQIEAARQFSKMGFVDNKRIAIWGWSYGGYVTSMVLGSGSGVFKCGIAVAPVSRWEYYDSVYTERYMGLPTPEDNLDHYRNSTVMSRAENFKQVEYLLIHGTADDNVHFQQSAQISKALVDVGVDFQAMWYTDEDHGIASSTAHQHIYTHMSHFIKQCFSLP
Procedure: as §1, §2, §3, §4

[4] = target: T2, DPP-4; experiment: Inhibition of DPP-4 activity against Ala-Pro-AFC by P2-Pro-AMCC compounds; format: biochemical; design: DPP-4 (amino acids 39-766); FLAG (N); made in house; host or cells: 293 cells (secreted, purified from serum-free conditioned media)
Procedure: as §5

[5] = target: T1, FAP; experiment: Inhibition of recombinant FAP by cmk-based irreversible inhibitors; format: biochemical; design: FAP (amino acids 38-760); FLAG (N); made in house; host or cells: 293 cells (secreted, purified from serum-free conditioned media); conditions: for inhibitor concentration-dependent inhibition of FAP: 10, 100, and 500 μM inhibitor, residual activity against L-Ala-Pro-AFC; for time course of FAP activity in the presence of inhibitor: substrate L-Ala-Pro-AFC
Procedure: (§6) The cleavage activities of FAP and DPP-4 in the presence of an irreversible dipeptide inhibitor was measured (FIGS. 9-12). In each time course study (FIGS. 9-15), the protease (FAP, DPP) and the inhibitor compound were incubated together for 4 hours, then residual activity was assayed against substrate.
(§7) The cleavage activities of FAP and DPP-4 in the presence of a tetrapeptide irreversible inhibitor was measured.
(§8) Acetyl-gly-pro-chloromethyl ketone and acetyl-thre-ser-gly-pro-cmk were custom synthesized at Anaspec (San Jose, Calif.). Recombinant FAP (160 nM) and DPP-4 (160 nM) were reacted with Ac-GP-cmk or TSGP-cmk (0-500 μM) at 37° C. in 50 mM Tris-HCl, pH 7.5 containing 100 mM NaCl, and 0.1 mg/ml bovine serum albumin (assay buffer). After 6 hours, residual protease activity against AP-AFC (50 μM) was measured using a Molecular Devices M2 plate reader in the kinetic mode (excitation 400 nm, emission 505 nm). Inhibition data are graphed as residual activity relative to protease activity in the absence of inhibitor.
(§9) Inhibition of FAP and DPP-4 by the cmk-based inhibitors was studied under pseudo-first order conditions. Proteases (100 nM) were reacted with 10 μM inhibitor in assay buffer at 37° C. for increasing amounts of time. Residual protease activity was then measured using AP-AFC (50 μM) as a substrate. Pseudo-first order rate constants were calculated from the slope of plots of Ln (residual protease activity) versus time. Apparent association constants (kass) for inhibition were determined from the relationship kass=kobs/[I], where kobs is the pseudo-first order rate constant and [I] is the inhibitor concentration.

[6] = target: T2, DPP-4; experiment: Inhibition of recombinant DPP-4 by cmk-based irreversible inhibitors; format: biochemical; design: DPP-4 (amino acids 39-766); FLAG (N); made in house; host or cells: 293 cells (secreted, purified from serum-free conditioned media); conditions: for inhibition of DPP-4: 10, 100, and 500 μM inhibitor, residual activity against L-Ala-Pro-AFC; for time course of DPP-4 activity in the presence of inhibitor: substrate L-Ala-Pro-AFC
Procedure: as §6, §7, §8, §9

[7] = target: T1, FAP; experiment: Inhibition of FAP by N-blocked boroPro compounds (progress curves); format: biochemical; design: FAP (amino acids 38-760); FLAG (N); made in house; host or cells: 293 cells (secreted, purified from serum-free conditioned media); conditions: cleavage of substrate L-Ala-Pro-AFC
Procedure: (§10) The steady states of product formation in the absence (V0) and presence of inhibitor (Vi) were used to calculate apparent inhibition constants (Kiapp) by plotting V0/Vi−1 against inhibitor concentration.
(§11) Briefly, proteases were added to a reaction mixture containing inhibitor and substrate (Ac-Ala-AMC for APH, Z-Gly-Pro-AMC for POP, and Ala-Pro-AFC for all others) in assay buffer at 23° C. Protease activity was followed continuously as described above to monitor time-dependent inhibition. Data were plotted as V0/Vi−1 versus [I], where V0 is the rate if substrate hydrolysis in the absence of inhibitor, Vi is the steady state rate of substrate hydrolysis in the presence of inhibitor and [I] is the concentration of Ac-Gly-BoroPro.
(§12) KI values for inhibition of proteases by 5 were determined using the method of progress curves. Briefly, proteases (10-100 nM) were added to a reaction mixture containing inhibitor 5 (0-10 μM) and substrate AP-AFC in assay buffer at 23° C. […] Data were plotted as V0/Vi−1 versus [I], where V0 is the rate if substrate hydrolysis in the absence of inhibitor, Vi is the steady state rate of substrate hydrolysis in the presence of inhibitor and [I] is the concentration of 5. […] Ki, the true equilibrium inhibition constant was determined according to the following relationship: Ki=Kobs/(1+[S]/Km), where [S] is the concentration of substrate used in the assay and Km is the Michaelis constant for substrate cleavage.

[8] = target: T2, DPP-4; experiment: Inhibition of DPP-4 by N-blocked boroPro compounds (progress curves); format: biochemical; design: DPP-4 (amino acids 39-766); FLAG (N); made in house; host or cells: 293 cells (secreted, purified from serum-free conditioned media); conditions: for FAP/DPP-4 Selectivity: DPP-4 Ki relative to FAP Ki; for Ki: cleavage of substrate L-Ala-Pro-AFC
Procedure: as §10, §11, §12

[9] = test system: syngeneic tumors derived from fibrosarcoma, lymphoma, melanoma, and mastocytoma cell lines; conditions: oral administration to mice; cited from earlier work
[10] = test system: tumor cells; conditions: cited from earlier work
[11] = target: T1, FAP; conditions: FIG. 13
[12] = target: T2, DPP-4; conditions: FIG. 13

Relative Hydrolysis rate by FAP [1] | Ki [2] | Relative Hydrolysis rate by DPP-4 [3] | Ki [4] | Ki [7] | FAP/DPP-4 Selectivity [8] | Ki [8] | Molecule | also measured
3 | 1 µM | 1 | > 2 µM |  |  |  | CC(=O)NC(C)C(=O)N1CCCC1C(=O)Nc1ccc2c(C)c(CC(N)=O)c(=O)oc2c1 [Ac-(D-Ala)] | 
 |  |  |  | 16.5 µM | >3 | > 40 µM | CC(=O)NC(CO)C(=O)NCC(=O)N1CCCC1B(O)O (stereo not drawn) [N-Ac-Ser-Gly-boroPro] | 
 |  |  |  | 0.048 µM | 1.2 | 0.056 µM | O=C(CNCc1ccccc1)N1CCCC1B(O)O (stereo not drawn) [N-benzyl-Gly-boroPro] | 
2 | 0.34 µM | 1 | 2 µM |  |  |  | NCCC(=O)O [β-Ala] | 

Continued, molecule first:

Molecule | Relative Hydrolysis rate by FAP [1] | Ki [2] | Relative Hydrolysis rate by DPP-4 [3] | Ki [4] | Ki [7] | FAP/DPP-4 Selectivity [8] | Ki [8] | also measured
CC(=O)NC(CO)C(=O)N1CCCC1C(=O)Nc1ccc2c(C)c(CC(N)=O)c(=O)oc2c1 [Ac-(D-Ser)] | 3 | 0.2 µM | 0 | > 2 µM |  |  |  | 
CC(=O)NCC(=O)N1CCC[C@H]1C(=O)CCl [Ac-Gly-Pro-cmk, Acetyl-gly-pro-chloromethyl ketone] (Ac-Gly-Pro-CH2Cl) |  |  |  |  |  |  |  | inhibitor concentration-dependent inhibition of FAP [5]: almost complete; time course of FAP activity in the presence of inhibitor [5]: time-dependent; inhibition of DPP-4 [6]: not inhibited; time course of DPP-4 activity in the presence of inhibitor [6]: not time-dependent inhibited
Cc1cccc(C)c1C(=O)NCC(=O)N1CCCC1B(O)O (stereo not drawn) [N-(2,6-dimethylbenzoyl)-Gly-boroPro] |  |  |  |  | 0.025 µM | 44 | 1.1 µM | 
CC(C)[C@H](N)C(=O)N1CCC[C@H]1B(O)O [PT-100, Val-boro-Pro] |  |  |  |  |  |  |  | growth of syngeneic tumors [9]: slowed growth; direct cytotoxic effect on tumor cells [10]: no direct cytotoxic effect
CC(=O)NC(C(=O)NC(CO)C(=O)NCC(=O)N1CCCC1C(=O)CCl)C(C)O (stereo not drawn) [TSGP-cmk, acetyl-thre-ser-gly-pro-cmk] (Ac-TSGP-CH2Cl; configuration not given here) |  |  |  |  |  |  |  | inhibitor concentration-dependent inhibition of FAP [5]: almost complete; time course of FAP activity in the presence of inhibitor [5]: time-dependent; inhibition of DPP-4 [6]: not substantially inhibited; time course of DPP-4 activity in the presence of inhibitor [6]: not time-dependent inhibited
cyclohexylglycine-2-cyano-proline [CHCP] |  |  |  |  |  |  |  | effect of inhibitor concentration on cleavage of AP-AFC by FAP [11]: not inhibitor concentration dependent cleavage by FAP; effect of inhibitor concentration on cleavage of AP-AFC by DPP-4 [12]: inhibitor concentration dependent cleavage by DPP-4
